# Entries after “also recorded” stand apart in the source; their conditions may differ. Read-outs that look alike come from different tables or passages of the source.
# Key:
# Tolerability in mice = format: in vivo; conditions: B6.129S7-Ifng (gamma interferon knockout), mouse, in vivo, po, 7 days
# Description: In vivo testing of the anti-Cryptosporidium effect of CpLDH inhibitors. Gamma interferon knockout mice (B6.129S7-Ifng), 8 weeks of age, were purchased from Charles River, USA. The care and use of the mice was done following the guidelines of protocol number 17024 approved by the University of Illinois at Urbana-Champaign, USA. The animals were allowed to acclimatize for 1 week before experiments commenced. Stock solutions of recombinant CpLDH inhibitors reconstituted in DMSO were diluted in sterile distilled water to reduce the final amount of DMSO in the solution to less than 1% (v/v) before administering them to mice. Prior to testing the anti-Cryptosporidium effect of the inhibitors in mice, the tolerability of each inhibitor was tested by oral gavage using varying dosages (100-2000 mg/kg body weight) of each inhibitor in groups of mice (three mice for each dose) daily for 7 days. Mice were observed daily for signs of toxicity including changes from normal physical activity, respiration, body temperature, feeding, posture, fur condition or occurrence of death. […] An equivalent volume of PBS containing a cocktail of penicillin (100 units/ml), streptomycin (100 μg/ml), chloramphenicol (34 μg/ml) and amphotericin (0.25 μg/ml) was added to the fecal samples and stored at 4° C. until use for quantification of C. parvum genomic DNA load. […]
# Cryptosporidium parvum = experiment: In vitro anti-Cryptosporidium effect in HCT-8 cells (immunofluorescence assay); format: cell-based; conditions: for IC50: Cryptosporidium parvum, HCT-8 cells
# Description: In vitro testing of the anti-Cryptosporidium effect of CpLDH inhibitors. HCT-8 cells were cultured in supplemented RPMI-1640 medium in 96-well plates. When the cells were confluent, old medium was replaced with fresh medium. To one set of wells, varying concentrations of recombinant CpLDH inhibitors (reconstituted in DMSO and diluted in RPMI medium) were added, while another set was left without inhibitors. Paromomycin was used as a positive control drug reconstituted in distilled sterile water. Then, 4×10^4 freshly excysted sporozoites were added to each well and incubated at 37° C. with 5% CO2. After 2 h incubation, varying concentrations of CpLDH inhibitors were added to the set of infected cells that were not treated initially. Control infected cells without inhibitors, but with added DMSO volumes equivalent to those used in the wells with inhibitors, were included. The cells were maintained in culture for a total of either 48 h or 72 h and processed for immunofluorescence assay as previously described (Int. J. Parasitol. 2017; 47(13), 867-874). Briefly, medium was decanted, and the cells fixed with methanol-acetic acid (9:1) for 2 minutes at room temperature. The cells were rehydrated and permeabilized by two successive washes with buffer (0.1% Triton X-100, 0.35 M NaCl, 0.13 M Tris-base, pH 7.6) and blocked with 5% normal goat serum, followed by staining with antibody to C. parvum (SporoGlo; Waterborn, Inc.) overnight at 4° C. The stained cells were washed twice with PBS, followed by water, and then imaged with an inverted fluorescence microscope. Fluorescence quantification was done using ImageJ version 1.37v software (NIH). Assays were performed in triplicate and repeated at least thrice.
# C. parvum [1] = experiment: Histopathology of distal small intestine of C. parvum infected mice; format: in vivo, Cryptosporidium parvum; conditions: lower small intestine, H&E, NSC158011 400 mg/kg, NSC10447 250, 500 or 1000 mg/kg, paromomycin 100 mg/kg
# Description: In vivo testing of the anti-Cryptosporidium effect of CpLDH inhibitors. Gamma interferon knockout mice (B6.129S7-Ifng), 8 weeks of age, were purchased from Charles River, USA. The care and use of the mice was done following the guidelines of protocol number 17024 approved by the University of Illinois at Urbana-Champaign, USA. The animals were allowed to acclimatize for 1 week before experiments commenced. Stock solutions of recombinant CpLDH inhibitors reconstituted in DMSO were diluted in sterile distilled water to reduce the final amount of DMSO in the solution to less than 1% (v/v) before administering them to mice. Prior to testing the anti-Cryptosporidium effect of the inhibitors in mice, the tolerability of each inhibitor was tested by oral gavage using varying dosages (100-2000 mg/kg body weight) of each inhibitor in groups of mice (three mice for each dose) daily for 7 days. Mice were observed daily for signs of toxicity including changes from normal physical activity, respiration, body temperature, feeding, posture, fur condition or occurrence of death. […] The subsequent dosages of NSC10447 used in the mice infection assays were 250, 500 and 1000 mg/kg mouse body weight, while the NSC158011 dosages used were 100, 200 and 400 mg/kg mouse body weight. Mice were allocated to groups as follows: “Infected plus inhibitor treatment”; “Infected minus inhibitor treatment”; “Uninfected minus inhibitor treatment” and “Infected plus paromomycin treatment”. Each group contained at least three mice. Each mouse in the infection groups received 5,000 C. parvum oocysts (resuspended in 50 μl of PBS) by oral gavage. Mice were housed individually in cages lined with sterile gauze as bedding. […] An equivalent volume of PBS containing a cocktail of penicillin (100 units/ml), streptomycin (100 μg/ml), chloramphenicol (34 μg/ml) and amphotericin (0.25 μg/ml) was added to the fecal samples and stored at 4° C. until use for quantification of C. parvum genomic DNA load. […]
# C. parvum [2] = experiment: Real-time PCR quantification of C. parvum DNA in fecal samples of infected mice; format: in vivo, Cryptosporidium parvum; conditions: for fecal C. parvum DNA load: Table 6, infected mice, multiplier printed in next cell
# Description: In vivo testing of the anti-Cryptosporidium effect of CpLDH inhibitors. Gamma interferon knockout mice (B6.129S7-Ifng), 8 weeks of age, were purchased from Charles River, USA. The care and use of the mice was done following the guidelines of protocol number 17024 approved by the University of Illinois at Urbana-Champaign, USA. The animals were allowed to acclimatize for 1 week before experiments commenced. Stock solutions of recombinant CpLDH inhibitors reconstituted in DMSO were diluted in sterile distilled water to reduce the final amount of DMSO in the solution to less than 1% (v/v) before administering them to mice. Prior to testing the anti-Cryptosporidium effect of the inhibitors in mice, the tolerability of each inhibitor was tested by oral gavage using varying dosages (100-2000 mg/kg body weight) of each inhibitor in groups of mice (three mice for each dose) daily for 7 days. Mice were observed daily for signs of toxicity including changes from normal physical activity, respiration, body temperature, feeding, posture, fur condition or occurrence of death. […] The subsequent dosages of NSC10447 used in the mice infection assays were 250, 500 and 1000 mg/kg mouse body weight, while the NSC158011 dosages used were 100, 200 and 400 mg/kg mouse body weight. Mice were allocated to groups as follows: “Infected plus inhibitor treatment”; “Infected minus inhibitor treatment”; “Uninfected minus inhibitor treatment” and “Infected plus paromomycin treatment”. Each group contained at least three mice. Each mouse in the infection groups received 5,000 C. parvum oocysts (resuspended in 50 μl of PBS) by oral gavage. Mice were housed individually in cages lined with sterile gauze as bedding. One day post-infection (PI), daily oral gavage administration of recombinant CpLDH inhibitor or paromomycin commenced and continued for a total of 7 days. Untreated mice received an equivalent volume of sterile distilled water (containing DMSO equivalent to the amount administered in the inhibitor-treated group) by oral gavage. Fecal pellets were collected daily from each cage and placed in individual sterile 15 ml conical tubes. An equivalent volume of PBS containing a cocktail of penicillin (100 units/ml), streptomycin (100 μg/ml), chloramphenicol (34 μg/ml) and amphotericin (0.25 μg/ml) was added to the fecal samples and stored at 4° C. until use for quantification of C. parvum genomic DNA load. Three independent replicate infection assays were performed. At 9 days PI, mice were euthanized and 5 cm of the distal small intestine resected 2 cm anterior to the cecum and immediately submerged in 4% buffered formalin. The intestinal tissues were submitted for histopathology to the Veterinary Diagnostic Laboratory at the University of Illinois at Urbana-Champaign. Briefly, intestinal tissues preserved in 4% buffered formalin were washed in 70% ethanol and embedded in 1% agar and then processed for paraffin embedding. For hematoxylin and eosin staining, five μm transverse and cross sections were cut and processed and stained following standard procedures of the Veterinary Diagnostic Laboratory. Sections were imaged using a Zeiss microscope and images captured with a color camera.
# Quantification of C. parvum shed in mice feces. Genomic DNA was extracted from individual fecal samples collected from mice at different days as described above. For each sample, 220 mg of homogenized feces were used to extract genomic DNA using the QIAamp PowerFecal DNA Kit (Qiagen, USA) following the manufacturer's instructions. Quantification of the amount of C. parvum 18s rRNA gene (GenBank accession number AF164102) was performed essentially as described previously (Int. J. Parasitol. 2018; 48(8), 649-656). Briefly, primers were used to generate a 240 bp amplicon from C. parvum genomic DNA by conventional PCR. […]
structure (smiles),measurement,setting,value
O=C1c2ccccc2C(=O)c2c(O)c(O)cc(O)c21 [NSC10447],highest tolerable dose (no toxicity signs),Tolerability in mice,1000 mg/kg
same,effect on C. parvum proliferation in initial screen,"Cryptosporidium parvum; 48 h post-infection, concentrations at least 50% lower than cytotoxicity IC50",significantly (P<0.05) inhibit C. parvum proliferation
same,IC50,"Cryptosporidium parvum; 48 h, compound added at the time of infection, read-out: IC50, inhibition of C. parvum growth at 48 h p.i.",72.7 µM
same,IC50,"Cryptosporidium parvum; 72 h, compound added at the time of infection, read-out: IC50, inhibition of C. parvum growth at 72 h p.i.",83.6 µM
same,IC50,"Cryptosporidium parvum; compound added 2 h post-infection, read-out: IC50, inhibition of C. parvum growth at 48 h p.i. (2 h)",79.5 µM
same,IC50,"Cryptosporidium parvum; compound added 2 h post-infection, read-out: IC50, inhibition of C. parvum growth at 72 h p.i. (2 h)",95.2 µM
same,histopathology of intestinal epithelium and villi,C. parvum [1],prevented villous atrophy and maintained the integrity of the intestinal mucosa; also recorded: intact intestinal epithelium with prominent villi
same,lower C. parvum DNA load in feces compared to infected untreated,"C. parvum [2]; NSC10447 at 250, 500 and 1000 mg/kg, day 3 until day 8",at least 50%
same,fecal C. parvum DNA load,"C. parvum [2]; NSC10447 250 mg/kg, DPI 1",4.4 ± 0.5 ×10^−10 ng/μL
same,fecal C. parvum DNA load,"C. parvum [2]; NSC10447 250 mg/kg, DPI 2",7.3 ± 0.2 ×10^−10 ng/μL
same,fecal C. parvum DNA load,"C. parvum [2]; NSC10447 250 mg/kg, DPI 3",1.0 ± 0.1 ×10^−8 ng/μL
same,fecal C. parvum DNA load,"C. parvum [2]; NSC10447 250 mg/kg, DPI 4",1.2 ± 0.1 ×10^−7 ng/μL
same,fecal C. parvum DNA load,"C. parvum [2]; NSC10447 250 mg/kg, DPI 5",1.2 ± 0.1 ×10^−6 ng/μL
same,fecal C. parvum DNA load,"C. parvum [2]; NSC10447 250 mg/kg, DPI 6",4.8 ± 0.2 ×10^−6 ng/μL
same,fecal C. parvum DNA load,"C. parvum [2]; NSC10447 250 mg/kg, DPI 7",1.9 ± 0.2 ×10^−5 ng/μL
same,fecal C. parvum DNA load,"C. parvum [2]; NSC10447 250 mg/kg, DPI 8",4.7 ± 0.1 ×10^−5 ng/μL
same,fecal C. parvum DNA load,"C. parvum [2]; NSC10447 500 mg/kg, DPI 1",1.0 ± 0.5 ×10^−10 ng/μL
same,fecal C. parvum DNA load,"C. parvum [2]; NSC10447 500 mg/kg, DPI 2",9.4 ± 0.2 ×10^−10 ng/μL
same,fecal C. parvum DNA load,"C. parvum [2]; NSC10447 500 mg/kg, DPI 3",6.7 ± 0.6 ×10^−9 ng/μL
same,fecal C. parvum DNA load,"C. parvum [2]; NSC10447 500 mg/kg, DPI 4",1.4 ± 0.1 ×10^−7 ng/μL
same,fecal C. parvum DNA load,"C. parvum [2]; NSC10447 500 mg/kg, DPI 5",1.6 ± 0.1 ×10^−6 ng/μL
same,fecal C. parvum DNA load,"C. parvum [2]; NSC10447 500 mg/kg, DPI 6",5.9 ± 0.4 ×10^−6 ng/μL
same,fecal C. parvum DNA load,"C. parvum [2]; NSC10447 500 mg/kg, DPI 7",9.3 ± 0.2 ×10^−6 ng/μL
same,fecal C. parvum DNA load,"C. parvum [2]; NSC10447 500 mg/kg, DPI 8",3.0 ± 0.4 ×10^−5 ng/μL
same,fecal C. parvum DNA load,"C. parvum [2]; NSC10447 1000 mg/kg, DPI 1",1.2 ± 0.2 ×10^−9 ng/μL
same,fecal C. parvum DNA load,"C. parvum [2]; NSC10447 1000 mg/kg, DPI 2",3.0 ± 0.7 ×10^−9 ng/μL
same,fecal C. parvum DNA load,"C. parvum [2]; NSC10447 1000 mg/kg, DPI 3",6.4 ± 0.2 ×10^−9 ng/μL
same,fecal C. parvum DNA load,"C. parvum [2]; NSC10447 1000 mg/kg, DPI 4",1.1 ± 0.1 ×10^−7 ng/μL
same,fecal C. parvum DNA load,"C. parvum [2]; NSC10447 1000 mg/kg, DPI 5",1.3 ± 0.1 ×10^−6 ng/μL
same,fecal C. parvum DNA load,"C. parvum [2]; NSC10447 1000 mg/kg, DPI 6",5.6 ± 0.4 ×10^−6 ng/μL
same,fecal C. parvum DNA load,"C. parvum [2]; NSC10447 1000 mg/kg, DPI 7",6.3 ± 0.4 ×10^−6 ng/μL
same,fecal C. parvum DNA load,"C. parvum [2]; NSC10447 1000 mg/kg, DPI 8",1.2 ± 0.8 ×10^−6 ng/μL

# Reference: patent publication US20250387359A1, “COMPOUNDS AND METHODS FOR THE TREATMENT OF PARASITIC INFECTIONS” (THE BOARD OF TRUSTEES OF THE UNIVERSITY OF ILLINOIS, priority 2019, published 2025)
